According to US20240376073A1 (Hoffmann-La Roche Inc., priority 2021, published 2024):
Structures can show the parent of a compound that is named as a salt.

Test system: Acinetobacter baumannii ATCC17961
Experiment: Antimicrobial susceptibility testing: 90% growth inhibitory concentration (IC90) determination
Type: cell-based
Settings: Acinetobacter baumannii ATCC17961; Iso-Sensitest broth; growth by OD 600 nm over 16 h; 35±2° C.; read-out: ATCC 17961 IC90
Experimental: The in vitro antimicrobial activity of the compounds was determined according to the following procedure:
The assay used a 10-points Iso-Sensitest broth medium to measure quantitatively the in vitro activity of the compounds against Acinetobacter baumannii ATCC17961.
Stock compounds in DMSO were serially twofold diluted (e.g. range from 50 to 0.097 μM final concentration) in 384 wells microtiter plates and inoculated with 49 μl the bacterial suspension in Iso-Sensitest medium to have a final cell concentration of ˜5×10^(5) CFU/ml in a final volume/well of 50 ul/well. Microtiter plates were incubated at 35±2° C.
Bacterial cell growth was determined with the measurement of optical density at λ=600 nm each 20 minutes over a time course of 16 h. Growth inhibition was calculated during the logarithmic growth of the bacterial cells with determination of the concentration inhibiting 50% (IC50) and 90% (IC90) of the growth.
Table 1 provides the […] growth inhibitory concentrations (IC90) in micromoles per liter of the compounds of present invention obtained against the strain Acinetobacter baumannii ATCC17961.

Structure (SMILES) | IC90
Cn1c(-c2ccc(OCC#N)c(F)c2F)cnc1C(=O)Nc1ccc(C(=O)NCCCNC(=O)C[N+](C)(C)C)c(Cl)c1 [Example A12, [2-[3-[[2-chloro-4-[[5-[4-(cyanomethoxy)-2,3-difluoro-phenyl]-1-methyl-imidazole-2-carbonyl]amino]benzoyl]amino]propylamino]-2-oxo-ethyl]-trimethyl-ammonium formate] | 350 nM
Cn1c(-c2ccc(OCC#N)c(F)c2F)cnc1C(=O)Nc1ccc(C(=O)NCCOCC[N+](C)(C)CC(N)=O)c(Cl)c1 [Example A13, (2-amino-2-oxo-ethyl)-[2-[2-[[2-chloro-4-[[5-[4-(cyanomethoxy)-2,3-difluoro-phenyl]-1-methyl-imidazole-2-carbonyl]amino]benzoyl]amino]ethoxy]ethyl]-dimethyl-ammonium formate] | 640 nM
Cc1cc(NC(=O)c2ncc(-c3ccc(OCC#N)c(F)c3F)n2C)ccc1C(=O)N[C@H]1C[C@@H](NC(=O)C[N+](C)(C)C)C1 [Example A18, [2-[[3-[[4-[5-[4-(cyanomethoxy)-2,3-difluoro-phenyl]-1-methyl-imidazole-2-carbonyl]amino]-2-methyl-benzoyl]amino]cyclobutyl]amino]-2-oxo-ethyl]-trimethyl-ammonium formate] | 240 nM
Cc1cc(NC(=O)c2ncc(-c3ccc(OCC#N)c(F)c3F)n2C)ccc1C(=O)N[C@H]1C[C@@H](NCC[N+](C)(C)C)C1 [Example A19, 2-[[3-[[4-[[5-[4-(cyanomethoxy)-2,3-difluoro-phenyl]-1-methyl-imidazole-2-carbonyl]amino]-2-methyl-benzoyl]amino]cyclobutyl]amino]ethyl-trimethyl-ammonium formate] | 1200 nM
COc1ccc(-c2cnc(C(=O)Nc3ccc(C(=O)NCc4cn(CCCO)[n+](C)c4)c(Cl)c3)n2C)c(F)c1F [Example A21, N-[3-chloro-4-[1-(3-hydroxypropyl)-2-methyl-pyrazol-2-ium-4-yl]methylcarbamoyl]phenyl]-5-(2,3-difluoro-4-methoxy-phenyl)-1-methyl-imidazole-2-carboxamide; formate] | 330 nM
COc1ccc(-c2cnc(C(=O)Nc3ccc(C(=O)NCc4cn(CCC#N)[n+](C)c4)c(Cl)c3)n2C)c(F)c1F [Example A22, N-[3-chloro-4-[1-(2-cyanoethyl)-2-methyl-pyrazol-2-ium-4-yl]methylcarbamoyl]phenyl]-5-(2,3-difluoro-4-methoxy-phenyl)-1-methyl-imidazole-2-carboxamide; formate] | 390 nM
COc1ccc(-c2cnc(C(=O)Nc3ccc(C(=O)NCc4cn(CC(N)=O)[n+](C)c4)c(Cl)c3)n2C)c(F)c1F [Example A23, N-[4-[1-(2-amino-2-oxo-ethyl)-2-methyl-pyrazol-2-ium-4-yl]methylcarbamoyl]-3-chloro-phenyl]-5-(2,3-difluoro-4-methoxy-phenyl)-1-methyl-imidazole-2-carboxamide; formate] | 400 nM
COCCCn1cc(CNC(=O)c2ccc(NC(=O)c3ncc(-c4ccc(OC)c(F)c4F)n3C)cc2Cl)c[n+]1C [Example A25, N-[3-chloro-4-[1-(3-methoxypropyl)-2-methyl-pyrazol-2-ium-4-yl]methylcarbamoyl]phenyl]-5-(2,3-difluoro-4-methoxy-phenyl)-1-methyl-imidazole-2-carboxamide; formate] | 410 nM
COc1ccc(-c2cnc(C(=O)Nc3ccc(C(=O)NCc4cn(CCOCCO)[n+](C)c4)c(Cl)c3)n2C)c(F)c1F [Example A26, N-[3-chloro-4-[1-[2-(2-hydroxyethoxy)ethyl]-2-methyl-pyrazol-2-ium-4-yl]methylcarbamoyl]phenyl]-5-(2,3-difluoro-4-methoxy-phenyl)-1-methyl-imidazole-2-carboxamide; formate] | 410 nM
COc1ccc(-c2cnc(C(=O)Nc3ccc(C(=O)NCc4cnc(NC(=O)[C@@H]5C[C@@H](O)C[N+]5(C)C)s4)c(Cl)c3)n2C)c(F)c1F [Example A27, N-[3-chloro-4-[[2-[[(2S,4R)-4-hydroxy-1,1-dimethyl-pyrrolidin-1-ium-2-carbonyl]amino]thiazol-5-yl]methylcarbamoyl]phenyl]-5-(2,3-difluoro-4-methoxy-phenyl)-1-methyl-imidazole-2-carboxamide; formate] | 56 nM
COc1ccc(-c2cnc(C(=O)Nc3ccc(C(=O)NCc4cnc(NC(=O)C5CCC[N+]5(C)C)s4)c(Cl)c3)n2C)c(F)c1F (stereo not shown) [Example A28, N-[3-chloro-4-[2-[(1,1-dimethylpyrrolidin-1-ium-2-carbonyl)amino]thiazol-5-yl]methylcarbamoyl]phenyl]-5-(2,3-difluoro-4-methoxy-phenyl)-1-methyl-imidazole-2-carboxamide; formate] | 88 nM

The remaining lines, values ahead:

IC90 | Structure (SMILES)
310 nM | Cc1cc(NC(=O)c2ncc(-c3ccc(OCC#N)c(F)c3F)n2C)ccc1C(=O)N1CCN(C(=O)C[N+](C)(C)C)CC1 [Example A8, [2-[4-[4-[[5-[4-(cyanomethoxy)-2,3-difluoro-phenyl]-1-methyl-imidazole-2-carbonyl]amino]-2-methyl-benzoyl]piperazin-1-yl]-2-oxo-ethyl]-trimethyl-ammonium; iodide]
130 nM | COc1ccc(-c2cnc(C(=O)Nc3ccc(C(=O)N4CCN(CC[N+](C)(C)C)CC4)c(Cl)c3)n2C)c(F)c1F [Example A9, 2-[4-[2-chloro-4-[[5-(2,3-difluoro-4-methoxy-phenyl)-1-methyl-imidazole-2-carbonyl]amino]benzoyl]piperazin-1-yl]ethyl-trimethyl-ammonium; iodide]
84 nM | COc1ccc(-c2cnc(C(=O)Nc3ccc(C(=O)N[C@H]4C[C@@H](NC(=O)C[N+](C)(C)C)C4)c(Cl)c3)n2C)c(F)c1F [Example A10, [2-[[3-[[2-Chloro-4-[[5-(2,3-difluoro-4-methoxy-phenyl)-1-methyl-imidazole-2-carbonyl]amino]benzoyl]amino]cyclobutyl]amino]-2-oxo-ethyl]-trimethyl-ammonium formate]
570 nM | COc1ccc(-c2cnc(C(=O)Nc3ccc(C(=O)N[C@H]4C[C@@H](NCC[N+](C)(C)C)C4)c(Cl)c3)n2C)c(F)c1F [Example A11, 2-[[3-[[2-chloro-4-[[5-(2,3-difluoro-4-methoxy-phenyl)-1-methyl-imidazole-2-carbonyl]amino]benzoyl]amino]cyclobutyl]amino]ethyl-trimethyl-ammonium; formic acid; formate]
600 nM | Cn1c(-c2ccc(OCC#N)c(F)c2F)cnc1C(=O)Nc1ccc(C(=O)NCCNC(=O)C[N+](C)(C)C)c(Cl)c1 [Example A14, [2-[2-[2-chloro-4-[[5-[4-(cyanomethoxy)-2,3-difluoro-phenyl]-1-methyl-imidazole-2-carbonyl]amino]benzoyl]amino]ethylamino]-2-oxo-ethyl]-trimethyl-ammonium formate]
770 nM | Cn1c(-c2ccc(OCC#N)c(F)c2F)cnc1C(=O)Nc1ccc(C(=O)NCCOCC[N+](C)(C)C)c(Cl)c1 [Example A15, 2-[2-[[2-chloro-4-[[5-[4-(cyanomethoxy)-2,3-difluoro-phenyl]-1-methyl-imidazole-2-carbonyl]amino]benzoyl]amino]ethoxy]ethyl-trimethyl-ammonium formate]
88 nM | Cn1c(-c2ccc(OCC#N)c(F)c2F)cnc1C(=O)Nc1ccc(C(=O)N[C@H]2C[C@@H](NC(=O)C[N+](C)(C)C)C2)c(Cl)c1 [Example A16, [2-[[3-[2-chloro-4-[[5-[4-(cyanomethoxy)-2,3-difluoro-phenyl]-1-methyl-imidazole-2-carbonyl]amino]benzoyl]amino]cyclobutyl]amino]-2-oxo-ethyl]-trimethyl-ammonium formate]
340 nM | Cn1c(-c2ccc(OCC#N)c(F)c2F)cnc1C(=O)Nc1ccc(C(=O)N[C@H]2C[C@@H](NCC[N+](C)(C)C)C2)c(Cl)c1 [Example A17, 2-[[3-[[2-chloro-4-[[5-[4-(cyanomethoxy)-2,3-difluoro-phenyl]-1-methyl-imidazole-2-carbonyl]amino]benzoyl]amino]cyclobutyl]amino]ethyl-trimethyl-ammonium formate]
320 nM | COc1ccc(-c2cnc(C(=O)Nc3ccc(C(=O)NCc4cn(CCO)[n+](C)c4)c(Cl)c3)n2C)c(F)c1F [Example A20, N-[3-chloro-4-[[1-(2-hydroxyethyl)-2-methyl-pyrazol-2-ium-4-yl]methylcarbamoyl]phenyl]-5-(2,3-difluoro-4-methoxy-phenyl)-1-methyl-imidazole-2-carboxamide;formate]

Same assay, conditions: Acinetobacter baumannii, ATCC17961, 16 h, read-out: ATCC 17961 IC90, Acinetobacter baumannii ATCC17961; Iso-Sensitest broth; growth by OD 600 nm over 16 h; 35±2° C.

Structure (SMILES) | IC90
Cn1c(-c2ccc(OCC#N)c(F)c2F)cnc1C(=O)Nc1ccc(C(=O)N2CCN(C(=O)C[N+](C)(C)C)CC2)c(Cl)c1 [Example A7, [2-[4-[2-chloro-4-[[5-[4-(cyanomethoxy)-2,3-difluoro-phenyl]-1-methyl-imidazole-2-carbonyl]amino]benzoyl]piperazin-1-yl]-2-oxo-ethyl]-trimethyl-ammonium; formate; iodide] | 93 nM
COc1ccc(-c2cnc(C(=O)Nc3ccc(C(=O)NCc4cn(CCS(C)(=O)=O)[n+](C)c4)c(Cl)c3)n2C)c(F)c1F [Example A24, N-[3-chloro-4-[[1-methyl-2-(2-methylsulfonylethyl)pyrazol-1-ium-4-yl]methylcarbamoyl]phenyl]-5-(2,3-difluoro-4-methoxy-phenyl)-1-methyl-imidazole-2-carboxamide; formate] | 350 nM
